In experiment [1] the target is T1, Human vitronectin receptor (αvβ3) (Homo sapiens, UniProt P05106+P06756).
T1 construct: Human vitronectin receptor (αvβ3) was purified from human placenta; from tissue; host or cells: human placenta
As to the kind of experiment: Vitronectin adhesion assay (solid phase receptor assay, competition with biotinylated vitronectin). To be noted: read-out: AvB3 IC50. In kind it is binding. Put shortly:
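Purified human αvβ3 coated overnight at 4 °C in TBS with 1.0 mM Ca++, Mg++, Mn++, pH 7.4; compounds (top final 1.0×10^−4 M) competed with 1 nM biotinylated vitronectin for 2 h at room temperature. Bound ligand detected by HRP anti-biotin/OPD at A450; values normalized to no-competitor controls, four-parameter curve fit.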

In experiment [2] the target is T2, Human fibrinogen receptor (αIIbβ3) (Homo sapiens, UniProt P05106+P08514).
T2 construct: Human fibrinogen receptor (αIIbβ3) was purified from outdated platelets; from tissue; host or cells: outdated human platelets
As to the kind of experiment: Purified IIb/IIIa receptor assay (solid phase receptor assay, competition with biotinylated vitronectin). The following applies: read-out: IIb/IIIa IC50. In kind it is binding. In a few lines: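 Purified platelet αIIbβ3 coated overnight at 4 °C in TBS with 1.0 mM Ca/Mg/Mn, pH 7.4, then BSA-blocked. Compounds (top 1.0×10^−4 M) competed with 1 nM biotinylated vitronectin for 2 h at room temperature. Bound label detected by HRP anti-biotin, A450; values normalized to no-competitor controls, four-parameter fit.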

pIC50: −log10 of the molar value. Counter-ions that a name gives are not always drawn.

In patent publication US6831199B1, “Pyrimidine compounds and derivatives thereof” (G. D. Searle & Co., priority 1995, dated 2004) one finds IC50 data, which are given here for 11 compounds.

In the case of `N=C(N)Nc1cccc(C(=O)NCC(=O)NC(CC(=O)O)c2cc(Cl)cc(Cl)c2Cl)c1` (stereo not drawn) [Example 254, β-[[2-[[[3-[(aminoiminomethyl)amino]phenyl]carbonyl]amino]acetyl]amino]-2,3,5-trichlorobenzenepropanoic acid, trifluoroacetate salt], the pIC50 in experiment [1] is 7.78; in experiment [2], 5.16.
As for `N=C(N)Nc1cccc(C(=O)NCC(=O)NC(CC(=O)O)c2ccccc2OCC(=O)O)c1` (stereo not drawn) [Example 255, β-[[2-[[[3-[(aminoiminomethyl)amino]phenyl]carbonyl]amino]acetyl]amino]-2(carboxymethoxy)benzenepropanoic acid, trifluoroacetate salt], the pIC50 in experiment [1] is 7.55; in experiment [2], 5.22.
As to `COc1cc(C(CC(=O)O)NC(=O)CNC(=O)c2cccc(NC(=N)N)c2)cc2c1OCO2` (stereo not drawn) [Example 256, β-[[2-[[[3-[(aminoiminomethyl)amino]phenyl]carbonyl]amino]acetyl]amino]-4-methoxy-1,3-benzodioxole-6-propanoic acid, trifluoroacetate salt], the values for the pIC50 in experiment [1] and in experiment [2] were 9.24 and 7.66, respectively.
For `COc1ccc(Br)cc1C(CC(=O)O)NC(=O)CNC(=O)c1cccc(NC(=N)N)c1` (stereo not drawn) [Example 257, β-[[2-[[[3-[(aminoiminomethyl)amino]phenyl]carbonyl]amino]acetyl]amino]-5-bromo-2-methoxybenzenepropanoic acid, trifluoroacetate salt], the pIC50 is 7.31 in experiment [1] and 5.33 in experiment [2].
The matching figures for `N=C(N)Nc1cccc(C(=O)NCC(=O)NC(CC(=O)O)c2cc3ccccc3o2)c1` (stereo not drawn) [Example 259, β-[[2-[[[3-[(aminoiminomethyl)amino]phenyl]carbonyl]amino]acetyl]amino]benzofuran-2-propanoic acid, trifluoroacetate salt]: 9.09 and 7.06.
`N=C(N)Nc1cccc(C(=O)NCC(=O)NC(CC(=O)O)c2cccc(OCC(=O)O)c2)c1` (stereo not drawn) [Example 260, β-[[2-[[[3-[(aminoiminomethyl)amino]phenyl]carbonyl]amino]acetyl]amino]-3-(carboxymethoxy)benzenepropanoic acid, trifluoroacetate salt]: the values for the pIC50 in experiment [1] and in experiment [2] were 9.13 and 7.19, respectively.
The matching figures for `N=C(N)Nc1cccc(C(=O)NCC(=O)NC(CC(=O)O)C(F)(F)F)c1` (stereo not shown) [Example 261, 3-[[2-[[[3-[(aminoiminomethyl)amino]phenyl]carbonyl]aminoacetyl]amino]-4,4,4-trifluorobutanoic acid, trifluoroacetate salt]: 8.19 and 5.33.
Taken in the same sequence, the figures for `CC(C)C(CC(=O)O)NC(=O)CNC(=O)c1cccc(NC(=N)N)c1` (stereo not shown) [Example 263, 3-[[2-[[[3-[(aminoiminomethyl)amino]phenyl]carbonyl]amino]acetyl]amino]-4-methylpentanoic acid, trifluoroacetate salt] were 8.38 and 5.56.
For `CCC(CC(=O)O)NC(=O)CNC(=O)c1cccc(NC(=N)N)c1` (stereo not shown) [Example 264, 3-[[2-[[[3-[(aminoiminomethyl)amino]phenyl]carbonyl]amino]acetyl]amino]pentanoic acid, trifluoroacetate salt], the pIC50 in experiment [1] was 8.66; in experiment [2] it was 6.24.
The matching figures for `N=C(N)Nc1cccc(C(=O)NCC(=O)NC(CC(=O)O)c2cc(Br)cc(Cl)c2O)c1` (stereo not drawn) [Example 265, β-[[2-[[[3-[(aminoiminomethyl)amino]phenyl]carbonyl]amino]acetyl]amino]-5-bromo-3-chloro-2-hydroxybenzenepropanoic acid, trifluoroacetate salt]: 8.21 and 6.15.
The matching figures for `O=C(O)CC(NC(=O)CNC(=O)c1cccc(NC(=O)NCc2ccncc2)c1)c1cccnc1` (stereo not drawn) [Example 266, β-[[2-[[[3-[[[(4-pyridinylmethyl)amino]carbonyl]amino]phenyl]carbonyl]amino]acetyl]amino]pyridine-3-propanoic acid, (bis)trifluoroacetate salt]: 9.11 and 5.74.
